In ChEMBL document CHEMBL1909294, “Translating clinical findings into knowledge in drug safety evaluation--drug induced liver injury prediction system (DILIps)” (PLoS Comput Biol, 2011):

Key:
Hepatotoxicity [1] = tested on: Hepatotoxicity;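 on HepSE cholecystitis: Cholecystitis-related hepatic side effect score drawn from the DILIps (drug-induced liver injury prediction) training data set; call rule not given here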;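 on HepSE cirrhosis: cirrhosis hepatic side effect score taken from the DILIps (drug-induced liver injury prediction) training set; call rule not given here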; on HepSE hepatic failure: call rule not given here;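 on HepSE hepatitis: Hepatitis-related hepatic side effect score taken from the training data of DILIps, a prediction system for drug-induced liver injury; call rule not given here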;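 on HepSE hepatomegaly: hepatic side effect score for hepatomegaly, taken from the training set of the DILIps drug-induced liver injury prediction system; call rule not given here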;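 on HepSE jaundice: Jaundice-related hepatic side-effect score drawn from the training data of the DILIps (drug-induced liver injury prediction system); call rule not given here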;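 on HepSE liver function tests abnormal: hepatic side effect score taken from the DILIps (drug-induced liver injury prediction system) training data, here covering abnormal liver function test findings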
Hepatotoxicity [2] = tested on: Hepatotoxicity; remark: listed apart in the source;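 on HepSE cholecystitis: Cholecystitis-related hepatic side effect score drawn from the DILIps (drug-induced liver injury prediction) training data set; call rule not given here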;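 on HepSE cirrhosis: cirrhosis hepatic side effect score taken from the DILIps (drug-induced liver injury prediction) training set; call rule not given here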; on HepSE hepatic failure: call rule not given here;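 on HepSE hepatitis: Hepatitis-related hepatic side effect score taken from the training data of DILIps, a prediction system for drug-induced liver injury; call rule not given here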;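 on HepSE hepatomegaly: hepatic side effect score for hepatomegaly, taken from the training set of the DILIps drug-induced liver injury prediction system; call rule not given here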;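 on HepSE jaundice: Jaundice-related hepatic side-effect score drawn from the training data of the DILIps (drug-induced liver injury prediction system); call rule not given here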
Hepatotoxicity [3] = tested on: Hepatotoxicity; remark: listed apart in the source;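 on HepSE cholecystitis: Cholecystitis-related hepatic side effect score drawn from the DILIps (drug-induced liver injury prediction) training data set; call rule not given here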;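 on HepSE cirrhosis: cirrhosis hepatic side effect score taken from the DILIps (drug-induced liver injury prediction) training set; call rule not given here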; on HepSE hepatic failure: call rule not given here;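 on HepSE hepatitis: Hepatitis-related hepatic side effect score taken from the training data of DILIps, a prediction system for drug-induced liver injury; call rule not given here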;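 on HepSE hepatomegaly: hepatic side effect score for hepatomegaly, taken from the training set of the DILIps drug-induced liver injury prediction system; call rule not given here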;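 on HepSE jaundice: Jaundice-related hepatic side-effect score drawn from the training data of the DILIps (drug-induced liver injury prediction system); call rule not given here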
Hepatotoxicity [4] = tested on: Hepatotoxicity; remark: listed apart in the source;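 on HepSE cholecystitis: Cholecystitis-related hepatic side effect score drawn from the DILIps (drug-induced liver injury prediction) training data set; call rule not given here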;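 on HepSE cirrhosis: cirrhosis hepatic side effect score taken from the DILIps (drug-induced liver injury prediction) training set; call rule not given here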; on HepSE hepatic failure: call rule not given here;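 on HepSE hepatitis: Hepatitis-related hepatic side effect score taken from the training data of DILIps, a prediction system for drug-induced liver injury; call rule not given here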;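 on HepSE hepatomegaly: hepatic side effect score for hepatomegaly, taken from the training set of the DILIps drug-induced liver injury prediction system; call rule not given here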;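 on HepSE jaundice: Jaundice-related hepatic side-effect score drawn from the training data of the DILIps (drug-induced liver injury prediction system); call rule not given here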
Hepatotoxicity [5] = tested on: Hepatotoxicity; remark: listed apart in the source; on HepSE hepatic failure: call rule not given here
Hepatotoxicity [6] = tested on: Hepatotoxicity; remark: listed apart in the source; on HepSE hepatic failure: call rule not given here
Hepatotoxicity [7] = tested on: Hepatotoxicity; remark: listed apart in the source
Hepatotoxicity [8] = tested on: Hepatotoxicity; remark: listed apart in the source
Hepatotoxicity [9] = tested on: Hepatotoxicity; remark: listed apart in the source
Hepatotoxicity [10] = tested on: Hepatotoxicity; remark: listed apart in the source
Hepatotoxicity [11] = tested on: Hepatotoxicity; remark: listed apart in the source
Hepatotoxicity [12] = tested on: Hepatotoxicity; remark: listed apart in the source
Hepatotoxicity [13] = tested on: Hepatotoxicity; remark: listed apart in the source
Hepatotoxicity [14] = tested on: Hepatotoxicity; remark: listed apart in the source
Hepatotoxicity [15] = tested on: Hepatotoxicity; remark: listed apart in the source
Hepatotoxicity [16] = tested on: Hepatotoxicity; remark: listed apart in the source

Molecule | DILI positive/negative (Hepatotoxicity [1]) | DILI positive/negative (Hepatotoxicity [3]) | other results
CO[C@@H]1O[C@H](CO)[C@H](O)[C@H](O[C@@H]2O[C@@H](C(=O)O)[C@@H](OC)[C@H](O)[C@H]2O)[C@H]1NC(C)=O | 1 | – | –
CCO[C@@H]1OC(=O)C[C@@H]1NC(=O)[C@@H]1CCCN2C(=O)CC[C@H](NC(=O)c3nccc4ccccc34)C(=O)N12 | 1 | – | –
CC(N)C(=O)OC(C)(C)Cc1ccc(Cl)cc1 (centres undefined) [ALAPROCLATE] | 1 | – | –
C[C@H](N)C(=O)N[C@@H](C)C(=O)N[C@H]1[C@@H]2CN(c3nc4c(cc3F)c(=O)c(C(=O)O)cn4-c3ccc(F)cc3F)C[C@@H]21 [ALATROFLOXACIN] | 1 | – | –
C=CCOc1ccc(CC(=O)O)cc1Cl [ALCLOFENAC] | – | – | DILI positive/negative (Hepatotoxicity [1]; Liver): 1
O=C(O)CCCCCCNC1c2ccccc2CCc2ccccc21 [AMINEPTINE] | 1 | – | –
CCCCN1C(=O)[C@@H]([C@H](O)C2CCCCC2)NC(=O)C12CCN(Cc1ccc(Oc3ccc(C(=O)O)cc3)cc1)CC2 [APLAVIROC] | 1 | – | –
O=C(O)COc1nn(Cc2ccccc2)c2ccccc12 [BENDAZAC] | – | – | DILI positive/negative (Hepatotoxicity [1]; Liver): 1
CCc1oc2ccccc2c1C(=O)c1ccc(O)cc1 [BENZARONE] | 1 | – | –
CCc1oc2ccccc2c1C(=O)c1cc(I)c(O)c(I)c1 [BENZIODARONE] | 1 | – | –
CCCCNc1ccc(C(=O)OCCOCCOCCOCCOCCOCCOCCOCCOCCOC)cc1 [BENZONATATE] | 0 | – | –
C[C@@H](Cc1ccccc1)N(C)Cc1ccccc1 [BENZPHETAMINE] | 0 | – | –
CN1C(=O)CCS(=O)(=O)C1c1ccc(Cl)cc1 (centres undefined) [CHLORMEZANONE] | 1 | – | –
Nc1nc(Cl)nc2c1ncn2[C@H]1C[C@H](O)[C@@H](CO)O1 [CLADRIBINE] | – | 0 | HepSE_hepatic failure (Hepatotoxicity [2]): 0; HepSE_hepatomegaly (Hepatotoxicity [4]): 0; HepSE_hepatitis (Hepatotoxicity [5]): 0; HepSE_jaundice (Hepatotoxicity [6]): 0; HepSE_cholecystitis (Hepatotoxicity [7]): 0; HepSE_cirrhosis (Hepatotoxicity [8]): 0; HepSE_liver function tests abnormal (Hepatotoxicity [9]): 0; HepSE_Combined Scores (Hepatotoxicity [10]): 0; HepSE_liver disease (Hepatotoxicity [11]): 0; HepSE_hepatic necrosis (Hepatotoxicity [12]): 0; HepSE_elevated liver function tests (Hepatotoxicity [13]): 0; HepSE_bilirubinemia (Hepatotoxicity [14]): 0; HepSE_liver fatty (Hepatotoxicity [15]): 0; HepSE_cholelithiasis (Hepatotoxicity [16]): 0
CN(C)CCCC1c2ccccc2Nc2ccc(Cl)cc21 (centres undefined) [CLOMACRAN] | 1 | – | –
COc1ccc2c(C(=O)c3ccc(Cl)cc3)c(C)n(CC(=O)O)c2c1 [CLOMETACIN] | 1 | – | –
CCN(CC)CCOc1ccc(C(=C(Cl)c2ccccc2)c2ccccc2)cc1 [CLOMIPHENE] | – | 1 | HepSE_hepatic failure (Hepatotoxicity [2]): 0; HepSE_hepatomegaly (Hepatotoxicity [4]): 0; HepSE_hepatitis (Hepatotoxicity [5]): 1; HepSE_jaundice (Hepatotoxicity [6]): 0; HepSE_cholecystitis (Hepatotoxicity [7]): 0; HepSE_cirrhosis (Hepatotoxicity [8]): 0; HepSE_liver function tests abnormal (Hepatotoxicity [9]): 0; HepSE_Combined Scores (Hepatotoxicity [10]): 1; HepSE_liver disease (Hepatotoxicity [11]): 0; HepSE_hepatic necrosis (Hepatotoxicity [12]): 0; HepSE_elevated liver function tests (Hepatotoxicity [13]): 0; HepSE_bilirubinemia (Hepatotoxicity [14]): 0; HepSE_liver fatty (Hepatotoxicity [15]): 0; HepSE_cholelithiasis (Hepatotoxicity [16]): 0
CC(=O)Oc1ccc(C(=C2CCCCC2)c2ccc(OC(C)=O)cc2)cc1 [CYCLOFENIL] | 1 | – | –
CN1c2c(oc(=O)n(-c3ccccn3)c2=O)-c2ccccc2S1(=O)=O [DROXICAM] | 1 | – | –
NC(N)=Nc1nc(CSCCN/C=N/S(=O)(=O)c2ccc(Br)cc2)cs1 [EBROTIDINE] | 1 | – | –
CC[N+](C)(C)c1cccc(O)c1.[Br-] [EDROPHONIUM BROMIDE] | 0 | – | –
CC1=NN(c2ccc(C)c(C)c2)C(=O)/C1=N\Nc1cccc(-c2cccc(C(=O)O)c2)c1O [ELTROMBOPAG] | – | – | DILI positive/negative (Hepatotoxicity [1]; Liver): 1
O=C(c1cc(O)c(O)c(O)c1)c1ccc(O)c(O)c1O [EXIFONE] | 1 | – | –
CN1CCC(Nc2ncc3ncnc(Nc4ccc(F)c(Cl)c4)c3n2)CC1 [FALNIDAMOL] | – | – | DILI positive/negative (Hepatotoxicity [1]; Liver): 1

Molecule | DILI positive/negative (Hepatotoxicity [1]) | DILI positive/negative (Hepatotoxicity [3]) | other results
O=C(O)Cc1csc(-c2ccc(Cl)cc2)n1 [FENCLOZIC ACID] | 1 | – | –
COc1cccc2c1[C@@H]1CN(CCCCn3c(=O)[nH]c4c(sc5ncc(-c6ccccc6)nc54)c3=O)C[C@@H]1CO2 [FIDUXOSIN] | 1 | – | –
CC(C)Nc1ncccn1 [ISAXONINE] | 1 | – | –
CS(=O)(=O)CCNCc1ccc(-c2ccc3ncnc(Nc4ccc(OCc5cccc(F)c5)c(Cl)c4)c3c2)o1 [LAPATINIB] | 1 | – | –
Cc1ccc(Nc2c(F)cccc2Cl)c(CC(=O)O)c1 [LUMIRACOXIB] | 1 | – | –
Cc1nnc(C(C)C)n1[C@@H]1C[C@H]2CC[C@@H](C1)N2CC[C@H](NC(=O)C1CCC(F)(F)CC1)c1ccccc1 [MARAVIROC] | 1 | – | –
CC(NN)c1ccccc1 (centres undefined) [MEBANAZINE] | 1 | – | –
CN1CCCC(CN2c3ccccc3Sc3ccccc32)C1 (centres undefined) [MEPAZINE] | 1 | – | –
CC1(C)S[C@@H]2[C@H](NC(=O)[C@H](NC(=O)N3CCN(S(C)(=O)=O)C3=O)c3ccccc3)C(=O)N2[C@H]1C(=O)[O-].[Na+] [MEZLOCILLIN SODIUM] | – | – | DILI positive/negative (Hepatotoxicity [3]; Liver): 1
CN1CCN2c3ccccc3Cc3ccccc3C2C1 (centres undefined) [MIANSERIN] | – | 1 | –
COCC(=O)O[C@]1(CCN(C)CCCc2nc3ccccc3[nH]2)CCc2cc(F)ccc2[C@@H]1C(C)C [MIBEFRADIL] | – | 0 | –
NCCO [MONOETHANOLAMINE] | 0 | – | –
CO[C@@]1(NC(=O)C(C(=O)[O-])c2ccc(O)cc2)C(=O)N2C(C(=O)[O-])=C(CSc3nnnn3C)CO[C@@H]21.[Na+].[Na+] (some centres undefined) [MOXALACTAM DISODIUM] | – | 0 | –
O=C(CCNNC(=O)c1ccncc1)NCc1ccccc1 [NIALAMIDE] | 1 | – | –
CN(C)Cc1ccc(CSCCN/C(=C\[N+](=O)[O-])NCc2ccc3c(c2)OCO3)o1 [NIPEROTIDINE] | – | – | DILI positive/negative (Hepatotoxicity [1]; Liver): 1
COC(=O)C1=C(C)NC(C)=C(C(=O)OCC(C)C)C1c1ccccc1[N+](=O)[O-] (centres undefined) [NISOLDIPINE] | – | 0 | –
Cc1nc([N+](=O)[O-])cn1-c1ccc([N+](=O)[O-])cc1 [NITREFAZOLE] | 1 | – | –
COC(=O)Nc1nc2ccc(C(=O)c3cccs3)cc2[nH]1 [NOCODAZOLE] | – | 0 | –
C#CC1(O)CC[C@H]2[C@@H]3CCC4=CC(=O)CC[C@@H]4[C@H]3CC[C@@]21CC (some centres undefined) [NORGESTREL] | – | – | DILI positive/negative (Hepatotoxicity [3]; Liver): 1
CCCCC(CC)COC(=O)C=Cc1ccc(OC)cc1 (centres undefined) [OCTINOXATE] | – | 1 | –
O=C1Nc2ccccc2C1(c1ccc(O)cc1)c1ccc(O)cc1 [OXYPHENISATINE] | 1 | – | –
O=S(=O)(O)O.Oc1cccc2cccnc12.Oc1cccc2cccnc12 [OXYQUINOLINE SULFATE] | – | – | DILI positive/negative (Hepatotoxicity [3]; Liver): 1
CONC(=N)c1ccc(-c2ccc(-c3ccc(C(=N)NOC)cc3)o2)cc1 [PAFURAMIDINE] | 1 | – | –
CCOc1ccc(NC(C)=O)cc1 [PHENACETIN] | – | 1 | –

Molecule | DILI positive/negative (Hepatotoxicity [1]) | DILI positive/negative (Hepatotoxicity [3]) | other results
Cl.Nc1ccc(/N=N/c2ccccc2)c(N)n1 [PHENAZOPYRIDINE HYDROCHLORIDE] | – | 1 | –
c1ccc2c(c1)Nc1ccccc1S2 [PHENOTHIAZINE] | – | 1 | –
CC(N)C(O)c1ccccc1.Cl (centres undefined) [PHENYLPROPANOLAMINE HYDROCHLORIDE] | – | 0 | –
CC(C)(Sc1cc(C(C)(C)C)c(O)c(C(C)(C)C)c1)Sc1cc(C(C)(C)C)c(O)c(C(C)(C)C)c1 [PROBUCOL] | – | 0 | –
CN[C@@H](C)[C@@H](O)c1ccccc1.Cl [PSEUDOEPHEDRINE HYDROCHLORIDE] | – | 0 | –
CCO[C@@H](Cc1ccc(OCCN2c3ccccc3Oc3ccccc32)cc1)C(=O)O [RAGAGLITAZAR] | – | 0 | –
Nc1ccc(S(=O)(=O)NC(=O)c2ccccc2)cc1 [SULFABENZAMIDE] | – | 0 | –
CC1CN(c2cc3c(cc2F)c(=O)c(C(=O)O)cn3-c2ccc(F)cc2F)CCN1 (centres undefined) [TEMAFLOXACIN] | – | 1 | –
CCCCNc1ccc(C(=O)OCCN(C)C)cc1.Cl [TETRACAINE HYDROCHLORIDE] | – | 0 | –
CN1c2ccccc2C(NCCCCCCC(=O)O)c2ccc(Cl)cc2S1(=O)=O (centres undefined) [TIANEPTINE] | – | 1 | –
CN1C(=O)OC(C)(C)C1=O [TRIMETHADIONE] | – | 1 | –
COc1cc(C(=O)NCc2ccc(OCCN(C)C)cc2)cc(OC)c1OC.Cl [TRIMETHOBENZAMIDE HYDROCHLORIDE] | – | 1 | –
CN(C)CCN(Cc1ccccc1)c1ccccn1.Cl [TRIPELENNAMINE HYDROCHLORIDE] | – | 1 | –
CO[C@H]1C[C@H](O[C@H]2[C@H](C)[C@@H](O[C@@H]3O[C@H](C)C[C@H](N(C)C)[C@H]3OC(C)=O)[C@@H](C)C[C@@]3(CO3)C(=O)[C@H](C)[C@@H](OC(C)=O)[C@@H](C)[C@@H](C)OC(=O)[C@@H]2C)O[C@@H](C)[C@@H]1OC(C)=O [TROLEANDOMYCIN] | – | 1 | –
Oc1ncc(N(CCCl)CCCl)c(O)n1 [URACIL MUSTARD] | – | – | DILI positive/negative (Hepatotoxicity [3]; Liver): 1
Nc1ncnc2c1ncn2[C@@H]1O[C@H](CO)[C@@H](O)[C@@H]1O [VIDARABINE] | – | 0 | –
CC[C@]1(O)C[C@@H]2CN(CCc3c([nH]c4ccccc34)[C@@](C(=O)OC)(c3cc4c(cc3OC)N(C)[C@H]3[C@@](O)(C(=O)OC)[C@H](OC(C)=O)[C@]5(CC)C=CCN6CC[C@]43[C@@H]65)C2)C1.O=S(=O)(O)O [VINBLASTINE SULFATE] | – | 0 | –
Cc1cc(CC(=O)O)n(C)c1C(=O)c1ccc(Cl)cc1 [ZOMEPIRAC] | – | 0 | –
AUROTHIOGLUCOSE | – | 1 | –
BISMUTH SUBSALICYLATE | – | 0 | –
FERROUS SULFATE | – | 0 | –
GALLIUM NITRATE HYDRATE | – | 0 | –
LACTOSE, ANHYDROUS | – | 0 | –
